The results in this text go back to patent US20260285857A1, “BICYCLIC AND HETEROCYCLIC AMIDE COMPOUNDS” (priority 2024, published 2026).

Molecules are shown by their SMILES.

In the first experiment the test system is immunoglobulin light chain protein WIL-FL T46L. The experiment can be described thus: Differential scanning fluorimetry (thermal shift) assay. Type of experiment: binding.
Details: not given
On the technique in general: Differential scanning fluorimetry follows unfolding on heating by fluorescence.
Turning to `Cc1cc(N2CC[C@](C)(c3ccccc3)C2)cn2nc(C34CC(CO)(CO3)C4N3CC4(CC4)NC3=O)nc12` (stereo partly drawn) [Compound 576, 6-(4-(hydroxymethyl)-1-(8-methyl-6-((R)-3-methyl-3-phenylpyrrolidin-1-yl)-[1,2,4]triazolo[1,5-a]pyridin-2-yl)-2-oxabicyclo[2.1.1]hexan-5-yl)-4,6-diazaspiro[2.4]heptan-5-one], the DSF result was “***** (key: 0-0.5° C.=*; >0.5-1 °C =**; >1-1.5° C.=***; >1.5-2.5° C.=****; >2.5° C.=*****)”.

Still in this experiment, the particulars now being: Table A; temperature shift [Tm]compound-[Tm]vehicle; recombinant WIL-FL T46L.
As for `Cc1cc(N2CC[C@](C)(c3ccccc3)C2)cn2nc(C(=O)NC3CCN(c4ccnc(-c5nnn[nH]5)c4)CC3)nc12` [Compound 284], the DSF entry is given as “***** (>2.5° C.=*****)”.

In the case of `Cc1cc(N2CC[C@](C)(c3ccccc3)C2)cn2nc(C(=O)N(C)[C@H]3CCNC3)nc12` [Compound 103], the DSF result was “***** (>2.5° C.=*****)”.

For `Cc1cc(N2CC[C@](C)(c3ccccc3)C2)cn2nc(C34CC(CO3)C4c3nc(N)n[nH]3)nc12` (stereo partly drawn) [Compound 438, 5-[1-[8-methyl-6-[(3R)-3-methyl-3-phenyl-pyrrolidin-1-yl]-[1,2,4]triazolo[1,5-a]pyridine-2-yl]-2-oxabicyclo[2.1.1]hexan-5-yl]-1H-1,2,4-triazol-3-amine], the DSF result is on record as “***** (>2.5° C.=*****)”.

As to `Cc1cc(N2CC[C@](C)(c3ccccc3)C2)cn2nc(C34CC(CO3)C4CN)nc12` (stereo partly drawn) [Compound 80], the DSF result is listed as “***** (>2.5° C.=*****)”.

For `CC[C@]1(c2ccccc2)CCN(c2cc(C)c3nc(C45CC(N)(CO4)C5)nn3c2)C1` [Compound 51], the DSF result was “** (>0.5-1 °C =**)”.

As for `Cc1cc(N2CC[C@](C)(c3ccccc3)C2)cn2nc(C(=O)NC(C)(C)C(=O)O)nc12` [Compound 169], the DSF entry is “***** (>2.5° C.=*****)”.

Consider `Cc1cc(N2CC[C@](C)(c3ccccc3)C2)cn2nc(C(=O)N3CC[C@H](O)C3)nc12` [Compound 174], for which the DSF entry was “***** (>2.5° C.=*****)”.

As to `COC(=O)c1cc(-n2nnc3c2CCN(C(=O)c2nc4c(C)cc(N5CC[C@](C)(c6ccccc6)C5)cn4n2)C3)ccn1` [Compound 402], the DSF result is recorded as “***** (>2.5° C.=*****)”.

As to `Cc1cc(N2CC[C@](C)(c3ccccc3)C2)cn2nc(C(=O)N3CCC4NC(=O)CC43)nc12` (stereo partly drawn) [Compound 135], the DSF entry is given as “***** (>2.5° C.=*****)”.

Take `Cc1cc(N2CC[C@](C)(c3ccccc3)C2)cn2nc(C34CC(CO3)C4c3nc(C(N)=O)n[nH]3)nc12` (stereo partly drawn) [Compound 6, 5-[1-[8-methyl-6-[(3R)-3-methyl-3-phenyl-pyrrolidin-1-yl]-[1,2,4]triazolo[1,5-a]pyridine-2-yl]-2-oxabicyclo[2.1.1]hexan-5-yl]-1H-1,2,4-triazole-3-carboxamide]: the DSF result was “***** (>2.5° C.=*****)”.

As to `Cc1cc(N2CCC(C)(c3cncc(F)c3)C2)cn2nc(C(=O)N3CC[C@@]4(CCN(c5cccc(C(=O)O)n5)C4)C3)nc12` (stereo partly drawn) [Compound 424], the DSF result is “**** (>1.5-2.5° C.=****)”.

Take `COC(=O)c1cccc(-c2nnc3n2CCN(C(=O)c2nc4c(C)cc(N5CC[C@](C)(c6ccccc6)C5)cn4n2)C3)n1` [Compound 406]: the DSF result was “***** (>2.5° C.=*****)”.

In the case of `Cc1cc(OC[C@H](C)c2ccccc2)cn2nc(C34CC(CO3)C4C(N)=O)nc12` (stereo partly drawn) [Compound 437], the DSF entry is on record as “*** (>1-1.5° C.=***)”.

Regarding `CCC1(c2ccccc2)CN(c2cc(C)c3nc(C(=O)N4CC5CN(c6cccc(C(=O)O)n6)CC5C4)nn3c2)C1` (stereo not drawn) [Compound 393], the DSF result was “***** (>2.5° C.=*****)”.

`Cc1cc(N2CC[C@](C)(c3ccccc3)C2)cn2nc(C(=O)NC3COC4(CCOC4)C3)nc12` (stereo partly drawn) [Compound 145]: the DSF entry was “***** (>2.5° C.=*****)”.

As for `Cc1cc(N2CCC(C)(c3ccc(F)cc3F)C2)cn2nc(C(=O)N3C[C@@H]4CN(c5cccc(C(=O)O)n5)C[C@@H]4C3)nc12` (stereo partly drawn) [Compound 388], the DSF result is on record as “**** (>1.5-2.5° C.=****)”.

For `Cc1cc(N2CC[C@](C)(c3ccccc3)C2)cn2nc(C(=O)N3CC4CN(c5cccc(C(=O)O)n5)CC4(F)C3)nc12` (stereo partly drawn) [Compound 244], the DSF entry is listed as “***** (>2.5° C.=*****)”.

Turning to `Cc1cc(N2CC[C@](C)(c3ccccc3)C2)cn2nc(C(=O)NC3CC4(C3)CC(N3CC5C(CC(=O)O)C5C3)C4)nc12` (stereo partly drawn) [Compound 356], the DSF entry is “***** (>2.5° C.=*****)”.

With `Cc1cc(N2CCC(C)(C3CC4(CCC4)C3)C2)cn2nc(C(=O)N3C[C@@H]4CN(c5cccc(C(=O)O)n5)C[C@@H]4C3)nc12` (stereo partly drawn) [Compound 296], the DSF result was “** (>0.5-1 °C =**)”.

As for `Cc1cc(N2CC[C@](C)(c3ccccc3)C2)cn2nc(C(=O)NC3CCS(=N)(=O)C3)nc12` (stereo partly drawn) [Compound 147], the DSF entry is reported as “***** (>2.5° C.=*****)”.

Turning to `Cc1cc(N2CC[C@](C)(c3ccccc3)C2)cn2nc(C(=O)N3CCOC4(CNC4)C3)nc12` [Compound 177], the DSF result is “***** (>2.5° C.=*****)”.

Take `Cc1cc(N2CC[C@](C)(c3ccccc3)C2)cn2nc(C(=O)N[C@H]3CNC[C@H]3F)nc12` [Compound 149]: the DSF result is on record as “***** (>2.5° C.=*****)”.

In the case of `Cc1cc(OC[C@H](C)c2ccccc2)cn2nc(C(=O)NCC34COC(C3)C4)nc12` [Compound 306], the DSF entry is “***** (>2.5° C.=*****)”.

`Cc1cc(N2CC[C@](C)(c3ccccc3)C2)cn2nc(C(=O)N3CCC4(CCN(c5cccc(C(=O)O)n5)C4)C3)nc12` (stereo partly drawn) [Compound 258]: the DSF entry is on record as “***** (>2.5° C.=*****)”.

On to `Cc1cc(N2CC[C@](C)(c3ccccc3)C2)cn2nc(C(=O)N[C@H]3CNC[C@@H]3C(=O)O)nc12` [Compound 134], for which the DSF result is “***** (>2.5° C.=*****)”.

Staying with this experiment, now noted: Table B; temperature shift [Tm]compound-[Tm]vehicle; recombinant WIL-FL T46L.
For the compound `Cc1cc(N2CC[C@@](C)(n3ccc(C(F)(F)F)n3)C2)cn2nc(C34CC(CO3)C4c3nc(N)n[nH]3)nc12` (stereo partly drawn) [Compound 496, 5-(1-(8-methyl-6-((R)-3-methyl-3-(3-(trifluoromethyl)-1H-pyrazol-1-yl)pyrrolidin-1-yl)-[1,2,4]triazolo[1,5-a]pyridin-2-yl)-2-oxabicyclo[2.1.1]hexan-5-yl)-1H-1,2,4-triazol-3-amine], the DSF entry is given as “**** (>1.5-2.5° C.=****)”.

Regarding `Cc1cc(N2CC[C@](C)(c3ccccc3)C2)cn2nc(C(=O)NC3CCC4CCC3N4c3cccc(C(=O)O)n3)nc12` (stereo partly drawn) [Compound 620], the DSF entry was “***** (>2.5° C.=*****)”.

Consider `Cc1cc(N2CC[C@@](C)(n3ccc(C(F)(F)F)n3)C2)cn2nc(C34CC(N)(CO3)C4)nc12` [Compound 471, (R)-1-(8-methyl-6-(3-methyl-3-(3-(trifluoromethyl)-1H-pyrazol-1-yl)pyrrolidin-1-yl)-[1,2,4]triazolo[1,5-a]pyridin-2-yl)-2-oxabicyclo[2.1.1]hexan-4-amine], for which the DSF entry is listed as “**** (>1.5-2.5° C.=****)”.

With `Cc1cc(N2CC[C@](C)(c3ccccc3)C2)cn2nc(C(=O)N3CC[C@@]4(CCN(C(=O)[C@@H]5CC[C@H](C(=O)O)C5)C4)C3)nc12` [Compound 708, (1S,3R)-3-[(5R)-7-[8-methyl-6-[(3R)-3-methyl-3-phenyl-pyrrolidin-1-yl]-[1,2,4]triazolo[1,5-a]pyridine-2-carbonyl]-2,7-diazaspiro[4.4]nonane-2-carbonyl]cyclopentanecarboxylic acid], the DSF entry is “***** (>2.5° C.=*****)”.

Regarding `Cc1nc(C2C3COC2(c2nc4c(C)cc(N5CC[C@](C)(c6ccccc6)C5)cn4n2)C3)n(C)n1` (stereo partly drawn) [Compound 493], the DSF result was “***** (>2.5° C.=*****)”.

With `Cc1cc(N2CC[C@](C)(c3ccccc3)C2)cn2nc(C(=O)N3CCC4C3CCN4c3cccc(C(=O)O)n3)nc12` (stereo partly drawn) [Compound 611], the DSF result is recorded as “***** (>2.5° C.=*****)”.

As for `Cc1cc(N2CC[C@](C)(c3ccccc3)C2)cn2nc(C34CC(CO3)C4Cn3cc(CO)nn3)nc12` (stereo partly drawn) [Compound 481], the DSF result is “***** (>2.5° C.=*****)”.

Take `COC(=O)NCC1C2COC1(c1nc3c(C)cc(N4CC[C@](C)(c5ccccc5)C4)cn3n1)C2` (stereo partly drawn) [Compound 498]: the DSF result is on record as “***** (>2.5° C.=*****)”.

In the case of `CCC(=O)NCC12COC(c3nc4c(C)cc(N5CC[C@](C)(c6ccccc6)C5)cn4n3)(C1)C2c1n[nH]c(C)n1` (stereo partly drawn) [Compound 588], the DSF entry was “***** (>2.5° C.=*****)”.

Turning to `Cc1cc(N2CC[C@](C)(c3ccccc3)C2)cn2nc(C(=O)N3CC[C@@]4(CCN(c5ccc(F)c(C(=O)O)n5)C4)C3)nc12` [Compound 711], the DSF entry is “***** (>2.5° C.=*****)”.

On to `Cc1cc(N2CC[C@](C)(c3ccccc3)C2)cn2nc(C(=O)N[C@@H]3CN(c4cccc(C(=O)O)n4)CC34CC4)nc12` [Compound 698], for which the DSF result is recorded as “***** (>2.5° C.=*****)”.

As for `CC(=O)NC12COC(c3nc4c(C)cc(N5CC[C@](C)(c6ccccc6)C5)cn4n3)(C1)C2c1nc(C)n(C)n1` (stereo partly drawn) [Compound 540], the DSF entry is “***** (>2.5° C.=*****)”.

Take `Cc1cc(N2CC[C@](C)(c3ccccc3)C2)cn2nc(C(=O)N3CCC4(CCN(c5ccc(C#N)c(C(=O)O)n5)C4)C3)nc12` (mixture of isomers) [Compound 609, 3-cyano-6-[2-[8-methyl-6-[rac-(3R)-3-methyl-3-phenyl-pyrrolidin-1-yl]-[1,2,4]triazolo[1,5-a]pyridine-2-carbonyl]-2,7-diazaspiro[4.4]nonan-7-yl]pyridine-2-carboxylic acid]: the DSF result is given as “***** (>2.5° C.=*****)”.

Turning to `Cc1cc(N2CC[C@](C)(c3ccccc3)C2)cn2nc(C(=O)N3C[C@@H]4CN(c5cccc(C(=O)O)n5)C[C@H]4C3)nc12` [Compound 644], the DSF result is on record as “***** (>2.5° C.=*****)”.

With `Cc1cc(N2CC3(CC[C@H]3c3cccc(F)c3)C2)cn2nc(C(=O)N3CC[C@@]4(CCN(c5cccc(C(=O)O)n5)C4)C3)nc12` [Compound 736, 6-[(5R)-2-[6-[(7S)-7-(3-fluorophenyl)-2-azaspiro[3.3]heptan-2-yl]-8-methyl-[1,2,4]triazolo[1,5-a]pyridine-2-carbonyl]-2,7-diazaspiro[4.4]nonan-7-yl]pyridine-2-carboxylic acid], the DSF result is “***** (>2.5° C.=*****)”.

In the case of `Cc1cc(N2CC[C@](C)(c3ccccc3)C2)cn2nc(C34CC(N5CCC(C(=O)O)CC5)(CO3)C4)nc12` [Compound 472, (R)-1-(1-(8-methyl-6-(3-methyl-3-phenylpyrrolidin-1-yl)-[1,2,4]triazolo[1,5-a]pyridin-2-yl)-2-oxabicyclo[2.1.1]hexan-4-yl)piperidine-4-carboxylic acid], the DSF entry was “***** (>2.5° C.=*****)”.
